Measured values reported in patent US8314250B2, “Sultam derivatives” (Hoffmann-La Roche Inc., priority 2009, dated 2012).
Where a name gives a salt, the structure may show the parent alone.

Tested on: HeLa cells
Test: CellTiter-Glo luminescent cell viability (cytotoxicity) assay
Assay type: cell-based
Conditions: 10 μM test compound, 48 hours, inhibition of luminescence compared to control cells, 10 µM
Method: Cytotoxicity was assessed using Promega's CellTiter-Glo® luminescent cell viability assay (Promega Corporation, Madison, Wis., USA) as described in Promega Technical Bulletin TB288, revised August 2008. The assay was performed in HeLa cells at a maximum concentration tested of 10 μM of test compound. This assay measures the amount of adenosine triphosphate (ATP) present as a way of quantifying the presence and degree of metabolic activity in cell cultures.
Viable Hela cells were plated at a density of 3000 cells/well in 96 wells in black, clear bottom plates. Cells were allowed to attach to the plate by incubating overnight at 37° C. Test compounds were diluted in DMSO then further diluted in 10% FBS media. Media was removed from the cell plates and 50 μL of the solution was added to each well manually with the exception of the control well, which contained the same volume of 10% FBS media which includes 1% DMSO. Cells were incubated in the presence of compound undisturbed for 48 hours at 37° C. After the 48 hour compound exposure, 50 μL of the pCellTiter Glo® reagent was added. The cell plates were agitated on a shaker for 2 minutes to help lyse the cells. The plate was covered and read for luminescence.
Percent inhibition was calculated as follows: PCT_INHIB=100*[(U−T)/U] Where U represents the Luminescence of wells containing untreated cells and
T represents the Luminescence of wells containing compound-treated cells

With `COc1ccc(Cl)c(CN(Cc2cccc(CN3C(C(=O)NC45CC6CC(CC(C6)C4)C5)CCS3(=O)=O)c2)[C@H](CN(C)C)CC(C)(C)C)c1F` (single isomer, unassigned; epimer 1) [Example 33] the “Activity (PCT_INHIB @ 10 μM)” value was 96%.
`COc1ccc(Cl)c(CN(Cc2cccc(CN3C(C(=O)NC45CC6CC(CC(C6)C4)C5)CCS3(=O)=O)c2)[C@H](CN(C)C)CC(C)(C)C)c1F` (single isomer, unassigned; epimer 2) [Example 34] was tested, and the “Activity (PCT_INHIB @ 10 μM)” value was 97%.

Same assay, conditions: Homo sapiens, HeLa, 48 h, 10 μM test compound, inhibition of luminescence compared to control cells, read-out: Activity (PCT_INHIB @ 10 μM)

`C[C@@H]1[C@@H](NC(=O)C2CCS(=O)(=O)N2Cc2cccc(CN(Cc3cc(Cl)ccc3O)[C@H](CN(C)C)CC(C)(C)C)c2)C[C@H]2C[C@@H]1C2(C)C` (stereo partly drawn) [Example 1, 2-(3-{[(5-Chloro-2-hydroxy-benzyl)-((S)-1-dimethylaminomethyl-3,3-dimethyl-butyl)-amino]-methyl}-benzyl)-1,1-dioxo-1λ^6-isothiazolidine-3-carboxylic acid((1S,2S,3S,5R)-2,6,6-trimethyl-bicyclo[3.1.1]hept-3-yl)-amide] and `Cc1ccc(O)c(CN(Cc2cccc(CN3C(C(=O)N[C@H]4C[C@H]5C[C@@H]([C@@H]4C)C5(C)C)CCS3(=O)=O)c2)[C@H](CN(C)C)CC(C)(C)C)c1` (stereo partly drawn) [Example 10, 2-(3-{[((S)-1-Dimethylaminomethyl-3,3-dimethyl-butyl)-(2-hydroxy-5-methyl-benzyl)-amino]-methyl}-benzyl)-1,1-dioxo-1λ^6-isothiazolidine-3-carboxylic acid((1S,2S,3S,5R)-2,6,6-trimethyl-bicyclo[3.1.1]hept-3-yl)-amide trifluoroacetate salt] are the same in inhibition at 10 µM: 96% for the first, 96% for the second.

Going from `C[C@@H]1[C@@H](NC(=O)C2CCS(=O)(=O)N2Cc2cccc(CN(Cc3ccccc3I)[C@H](CN(C)C)CC(C)(C)C)c2)C[C@H]2C[C@@H]1C2(C)C` (stereo partly drawn) [Example 2, 2-(3-{[((S)-1-Dimethylaminomethyl-3,3-dimethyl-butyl)-(2-iodo-benzyl)-amino]-methyl}-benzyl)-1,1-dioxo-1λ^6-isothiazolidine-3-carboxylic acid((1S,2S,3S,5R)-2,6,6-trimethyl-bicyclo[3.1.1]hept-3-yl)-amide trifluoroacetate salt] to `CCOc1ccccc1CN(Cc1cccc(CN2C(C(=O)N[C@H]3C[C@H]4C[C@@H]([C@@H]3C)C4(C)C)CCS2(=O)=O)c1)[C@H](CN(C)C)CC(C)(C)C` (stereo partly drawn) [Example 3, 2-(3-{[((S)-1-Dimethylaminomethyl-3,3-dimethyl-butyl)-(2-ethoxy-benzyl)-amino]methyl}-benzyl)-1,1-dioxo-1λ^6-isothiazolidine-3-carboxylic acid((1S,2S,3S,5R)-2,6,6-trimethyl-bicyclo[3.1.1]hept-3-yl)-amide trifluoroacetate salt], the inhibition at 10 µM rises from 50% to 69%.

`COc1ccc(C(C)C)cc1CN(Cc1cccc(CN2C(C(=O)N[C@H]3C[C@H]4C[C@@H]([C@@H]3C)C4(C)C)CCS2(=O)=O)c1)[C@H](CN(C)C)CC(C)(C)C` (stereo partly drawn) [Example 4, 2-(3-{[((S)-1-Dimethylaminomethyl-3,3-dimethyl-butyl)-(5-isopropyl-2-methoxy-benzyl)-amino]-methyl}-benzyl)-1,1-1λ^6-isothiazolidine-3-carboxylic acid((1S,2S,3S,5R)-2,6,6-trimethyl-bicyclo[3.1.1]hept-3-yl)-amide trifluoroacetate salt] and `Cc1ccc(CN(Cc2cccc(CN3C(C(=O)N[C@H]4C[C@H]5C[C@@H]([C@@H]4C)C5(C)C)CCS3(=O)=O)c2)[C@H](CN(C)C)CC(C)(C)C)c(O)c1` (stereo partly drawn) [Example 9, 2-(3-{[((S)-1-Dimethylaminomethyl-3,3-dimethyl-butyl)-(2-hydroxy-4-methylbenzyl)-amino]-methyl}-benzyl)-1,1-dioxo-1λ^6-isothiazolidine-3-carboxylic acid((1S,2S,3S,5R)-2,6,6-trimethyl-bicyclo[3.1.1]hept-3-yl)-amide trifluoroacetate salt] are the same in inhibition at 10 µM: 96% for the first, 96% for the second.

First: C[C@@H]1[C@@H](NC(=O)C2CCS(=O)(=O)N2Cc2cccc(CN(Cc3ccccc3OC(F)F)[C@H](CN(C)C)CC(C)(C)C)c2)C[C@H]2C[C@@H]1C2(C)C (stereo partly drawn) [Example 5, 2-(3-{[(2-Difluoromethoxy-benzyl)-((S)-1-dimethylaminomethyl-3,3-dimethyl-butyl)amino]-methyl}-benzyl)-1,1-dioxo-1λ^6-isothiazolidine-3-carboxylic acid((1S,2S,3S,5R)-2,6,6-trimethyl-bicyclo[3.1.1]hept-3-yl)-amide trifluoroacetate salt]
Second: C[C@@H]1[C@@H](NC(=O)C2CCS(=O)(=O)N2Cc2cccc(CN(Cc3ccccc3Oc3ccc(F)cc3)[C@H](CN(C)C)CC(C)(C)C)c2)C[C@H]2C[C@@H]1C2(C)C (stereo partly drawn) [Example 6, 2-[3-({((S)-1-Dimethylaminomethyl-3,3-dimethyl-butyl)-[2-(4-fluoro-phenoxy)-benzyl]-amino}-methyl)-benzyl]-1,1-dioxo-1λ^6-isothiazolidine-3-carboxylic acid((1S,2S,3S,5R)-2,6,6-trimethyl-bicyclo[3.1.1]hept-3-yl)-amide trifluoroacetate salt]
The inhibition at 10 µM of the first is higher: 87% for the first, 82% for the second.

First: Cc1ccc(Oc2ccccc2CN(Cc2cccc(CN3C(C(=O)N[C@H]4C[C@H]5C[C@@H]([C@@H]4C)C5(C)C)CCS3(=O)=O)c2)[C@H](CN(C)C)CC(C)(C)C)cc1 (stereo partly drawn) [Example 7, 2-(3-{[((S)-1-Dimethylaminomethyl-3,3-dimethyl-butyl)-(2-p-tolyloxy-benzyl)-amino]-methyl}-benzyl)-1,1-dioxo-1λ^6-isothiazolidine-3-carboxylic acid((1S,2S,3S,5R)-2,6,6-trimethyl-bicyclo[3.1.1]hept-3-yl)-amide trifluoroacetate salt]
Second: C[C@@H]1[C@@H](NC(=O)C2CCS(=O)(=O)N2Cc2cccc(CN(Cc3ccccc3-c3ccc(F)cc3)[C@H](CN(C)C)CC(C)(C)C)c2)C[C@H]2C[C@@H]1C2(C)C (stereo partly drawn) [Example 8, 2-(3-{[((S)-1-Dimethylaminomethyl-3,3-dimethyl-butyl)-(4′-fluoro-biphenyl-2 ylmethyl)-amino]-methyl}-benzyl)-1,1-dioxo-1λ^6-isothiazolidine-3-carboxylic acid((1S,2S,3S,5R)-2,6,6-trimethyl-bicyclo[3.1.1]hept-3-yl)-amide trifluoroacetate salt]
The inhibition at 10 µM of the first is lower: 58% for the first, 97% for the second.

First: Cc1ccccc1-c1ccccc1CN(Cc1cccc(CN2C(C(=O)N[C@H]3C[C@H]4C[C@@H]([C@@H]3C)C4(C)C)CCS2(=O)=O)c1)[C@H](CN(C)C)CC(C)(C)C (stereo partly drawn) [Example 11, 2-(3-{[((S)-1-Dimethylaminomethyl-3,3-dimethyl-butyl)-(2′-methyl-biphenyl-2 ylmethyl)-amino]-methyl}-benzyl)-1,1-dioxo-1λ^6-isothiazolidine-3-carboxylic acid((1S,2S,3S,5R)-2,6,6-trimethyl-bicyclo[3.1.1]hept-3-yl)-amide trifluoroacetate salt]
Second: C[C@@H]1[C@@H](NC(=O)C2CCS(=O)(=O)N2Cc2cccc(CN(Cc3c(F)cccc3Oc3ccccc3)[C@H](CN(C)C)CC(C)(C)C)c2)C[C@H]2C[C@@H]1C2(C)C (stereo partly drawn) [Example 12, 2-(3-{[((S)-1-Dimethylaminomethyl-3,3-dimethyl-butyl)-(2-fluoro-6-phenoxy-benzyl)-amino]-methyl}-benzyl)-1,1-dioxo-1λ^6-isothiazolidine-3-carboxylic acid((1S,2S,3S,5R)-2,6,6-trimethyl-bicyclo[3.1.1]hept-3-yl)-amide trifluoroacetate salt]
The inhibition at 10 µM of the first is higher: 97% for the first, 96% for the second.

Going from `C[C@@H]1[C@@H](NC(=O)C2CCS(=O)(=O)N2Cc2cccc(CN(Cc3c(F)ccc(F)c3F)[C@H](CN(C)C)CC(C)(C)C)c2)C[C@H]2C[C@@H]1C2(C)C` (stereo partly drawn) [Example 13, 2-(3-{[((S)-1-Dimethylaminomethyl-3,3-dimethyl-butyl)-(2,3,6-trifluoro-benzyl)-amino]-methyl}-benzyl)-1,1-dioxo-1λ^6-isothiazolidine-3-carboxylic acid((1S,2S,3S,5R)-2,6,6-trimethyl-bicyclo[3.1.1]hept-3-yl)-amide trifluoroacetate salt] to `Cc1ccc(Cl)c(CN(Cc2cccc(CN3C(C(=O)N[C@H]4C[C@H]5C[C@@H]([C@@H]4C)C5(C)C)CCS3(=O)=O)c2)[C@H](CN(C)C)CC(C)(C)C)c1F` (stereo partly drawn) [Example 15, 2-(3-{[(6-Chloro-2-fluoro-3-methyl-benzyl)-((S)-1-dimethylaminomethyl-3,3-dimethylbutyl)-amino]-methyl}-benzyl)-1,1-dioxo-1λ^6-isothiazolidine-3-carboxylic acid((1S,2S,3S,5R)-2,6,6-trimethyl-bicyclo[3.1.1]hept-3-yl)-amide trifluoroacetate salt], the inhibition at 10 µM falls from 93% to 91%.

For `COc1ccc(Br)c(CN(Cc2cccc(CN3C(C(=O)N[C@H]4C[C@H]5C[C@@H]([C@@H]4C)C5(C)C)CCS3(=O)=O)c2)[C@H](CN(C)C)CC(C)(C)C)c1O` (stereo partly drawn) [Example 14, 2-(3-{[(6-Bromo-2-hydroxy-3-methoxy-benzyl)-((S)-1-dimethylaminomethyl-3,3-dimethyl-butyl)-amino]-methyl}-benzyl)-1,1-dioxo-1λ^6-isothiazolidine-3-carboxylic acid((1S,2S,3S,5R)-2,6,6-trimethyl-bicyclo[3.1.1]hept-3-yl)-amide trifluoroacetate salt], the inhibition at 10 µM was 75%.
